pIC50: −log10 of the molar value.
Target: T1, TβR (GST-ALK5) (Homo sapiens, UniProt P36897)
T1 sequence (P36897 34-503): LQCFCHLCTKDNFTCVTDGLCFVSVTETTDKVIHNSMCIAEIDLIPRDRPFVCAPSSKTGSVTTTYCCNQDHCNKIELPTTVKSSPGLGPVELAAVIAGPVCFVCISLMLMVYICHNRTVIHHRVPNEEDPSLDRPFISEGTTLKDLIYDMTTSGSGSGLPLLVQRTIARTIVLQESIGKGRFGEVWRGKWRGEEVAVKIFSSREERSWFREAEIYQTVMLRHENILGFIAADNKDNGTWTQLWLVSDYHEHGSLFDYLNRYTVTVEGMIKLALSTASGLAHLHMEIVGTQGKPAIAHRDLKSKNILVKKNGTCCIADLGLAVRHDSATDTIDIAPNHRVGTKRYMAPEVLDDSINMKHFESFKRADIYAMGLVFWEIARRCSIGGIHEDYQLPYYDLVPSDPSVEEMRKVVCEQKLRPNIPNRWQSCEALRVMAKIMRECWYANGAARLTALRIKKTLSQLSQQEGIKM
Test: In-vitro (enzyme) flashplate kinase assay, TβR activity
Type: biochemical
Conditions: GST-ALK5, GST-SMAD2 substrate, 3 mM ATP
Method: In-Vitro (Enzyme) Assay for Determination of the Efficacy of Inhibitors of the Inhibition of TGF-Beta-Mediated Effects
The kinase assay was carried out as 384-well flashplate assay. […] The reaction was stopped using 25 μl of 200 mM EDTA solution, filtered with suction at room temperature after 30 min, and the wells were washed with 3 times 100 μl of 0.9% NaCl solution. Radioactivity was measured in the TopCount. The IC50 values were calculated using RS1. Above and below, all temperatures were indicated in ° C.

Row | SMILES | pIC50
1 | c1ccc(-c2cc(Nc3ccncc3)c3ccccc3n2)nc1 [compound 057] | > 6.30
2 | CN(C)CCNC(=O)c1cnccc1Nc1cc(-c2cc(Cl)ccc2F)nc2ccccc12 [compound 123] | > 6.30
3 | CC(=O)OCC(=O)Nc1cnccc1Nc1cc(-c2cc(Cl)ccc2F)nc2ccccc12 [compound 085] | > 6.30
4 | Fc1ccc(C(F)(F)F)cc1-c1cc(Nc2ccncc2)c2ccccc2n1 [compound 056] | > 6.30
5 | CCOC(=O)n1c(=O)n(-c2cc(-c3cc(Cl)ccc3F)nc3ccccc23)c2ccncc21 [compound 039] | > 6.30
6 | OCc1cnccc1Nc1cc(-c2cc(Cl)ccc2F)nc2ccccc12 [compound 120] | > 6.30
7 | O=c1[nH]c2cnccc2n1-c1c(O)c(-c2cc(Cl)ccc2F)nc2ccccc12 [compound 053] | 5.00 to 6.00
8 | CN1CCN(c2cc(Nc3cc(-c4cc(Cl)ccc4F)nc4ccccc34)ncn2)CC1 [compound 103] | < 5.00
9 | CC(=O)OC(C)(C)C(=O)Nc1cnccc1Nc1cc(-c2cc(Cl)ccc2F)nc2ccccc12 [compound 088] | 5.00 to 6.00
10 | O=c1[nH]c2cnccc2n1-c1cc(-c2cc(Cl)ccc2F)nc2ccccc12 [compound 023, N*4*-[2-(5-Chloro-2-fluoro-phenyl)-quinolin-4-yl]-pyridine-3,4-diamine urea] | > 6.30
11 | CC(C)(C)S(=O)(=O)c1cnccc1Nc1cc(-c2cc(Cl)ccc2F)nc2ccccc12 [compound 096] | < 5.00
12 | Fc1ccc(Cl)cc1-c1cc(Nc2ccnc(N(c3ccnc(Cl)c3)c3cc(-c4cc(Cl)ccc4F)nc4ccccc34)c2)c2ccccc2n1 [compound 022] | 5.00 to 6.00
13 | Fc1ccc(Cl)cc1-c1cc(Nc2cc(Nc3cc(-c4cc(Cl)ccc4F)nc4ccccc34)ncn2)c2ccccc2n1 [compound 036] | < 5.00
14 | CN1CCN(C(=O)Nc2cnccc2N(C(=O)N2CCN(C)CC2)c2cc(-c3cc(Cl)ccc3F)nc3ccccc23)CC1 [compound 061] | < 5.00
15 | Fc1ccc(Br)cc1-c1cc(Nc2ccncc2)c2ccccc2n1 [compound 084] | > 6.30
16 | CN(C)CCC(=O)Nc1cnccc1Nc1cc(-c2cc(Cl)ccc2F)nc2ccccc12 [compound 064] | > 6.30
17 | c1ccc(-c2cc(Nc3ccncc3)c3ccccc3n2)cc1 [compound 073] | > 6.30
18 | CN1CCN(c2nccc(Nc3cc(-c4cc(Cl)ccc4F)nc4ccccc34)n2)CC1 [compound 015] | < 5.00

Row | SMILES | pIC50
19 | N#Cc1cncnc1Nc1cc(-c2cc(Cl)ccc2F)nc2ccccc12 [compound 122] | > 6.30
20 | Fc1ccc(Cl)cc1-c1cc(Nc2ccnc3[nH]ccc23)c2ccccc2n1 [compound 032] | < 5.00
21 | COC(=O)c1cnccc1Nc1cc(-c2cc(Cl)ccc2F)nc2ccccc12 [compound 116] | > 6.30
22 | Fc1ccccc1-c1cc(Nc2ccncc2)c2ccccc2n1 [compound 044] | > 6.30
23 | Fc1ccc(Cl)cc1-c1cc(-n2cnc3cnccc32)c2ccccc2n1 [compound 077] | > 6.30
24 | Fc1ccc(Cl)cc1-c1cc(N(c2ccncn2)c2cc(-c3cc(Cl)ccc3F)nc3ccccc23)c2ccccc2n1 [compound 017] | 5.00 to 6.00
25 | Fc1ccccc1-c1cc(Nc2ccncn2)c2ccccc2n1 [compound 045] | > 6.30
26 | Fc1ccc(Cl)cc1-c1cc(Nc2ccnc3cc(C(F)(F)F)ccc23)c2ccccc2n1 [compound 069] | > 6.30
27 | Fc1ccc(Cl)cc1-c1cc(NCc2ccncc2)c2ccccc2n1 [compound 060] | < 5.00
28 | Clc1ccc(Cl)c(-c2cc(Nc3ccncc3)c3ccccc3n2)c1 [compound 048] | > 6.30
29 | COc1cccc(-c2cc(Nc3ccncc3)c3ccccc3n2)c1 [compound 049] | 6.00 to 6.30
30 | Nc1cnccc1Nc1cc(-c2ccccc2F)nc2ccccc12 [compound 074, N*4*-[2-(2-fluoro-phenyl)-quinolin-4-yl]-pyridine-3,4-diamine] | 5.00 to 6.00
31 | CN(C)c1cccc(-c2cc(Nc3ccncc3)c3ccccc3n2)c1 [compound 079] | 5.00 to 6.00
32 | FC(F)(F)c1cccc(-c2cc(Nc3ccncc3)c3ccccc3n2)c1 [compound 051] | > 6.30
33 | N#Cc1cccc(-c2cc(Nc3ccncc3)c3ccccc3n2)c1 [compound 055] | 5.00 to 6.00
34 | CC(=O)N(c1cc(N)ncn1)c1cc(-c2cc(Cl)ccc2F)nc2ccccc12 [compound 110] | 5.00 to 6.00
35 | Nc1cnccc1N(CCC(=O)O)c1cc(-c2cc(Cl)ccc2F)nc2ccccc12 [compound 072] | < 5.00

The next lines start with the values.

Row | pIC50 | SMILES
36 | 6.00 to 6.30 | Cc1nc2cnccc2n1-c1cc(-c2cc(Cl)ccc2F)nc2ccccc12 [compound 026]
37 | 6.00 to 6.30 | CN(c1ccncc1)c1cc(-c2cc(Cl)ccc2F)nc2ccccc12 [compound 007]
38 | > 6.30 | COCc1nc2cnccc2n1-c1cc(-c2cc(Cl)ccc2F)nc2ccccc12 [compound 089, 2-(5-Chloro-2-fluoro-phenyl)-4-(2-methoxymethyl-imidazo[4,5-c]pyridin-1-yl)-quinoline]
39 | 5.00 to 6.00 | O=C(Nc1cc(-c2cc(Cl)ccc2F)nc2ccccc12)c1ccncc1 [compound 009]
40 | > 6.30 | CN(C)CCCNc1cc(Nc2cc(-c3ccccc3F)nc3ccccc23)ccn1 [compound 121]
41 | 6.00 to 6.30 | O=C(CO)Nc1cnccc1Nc1cc(-c2cc(Cl)ccc2F)nc2ccccc12 [compound 109]
42 | 5.00 to 6.00 | Nc1cc(N(c2cc(-c3cc(Cl)ccc3F)nc3ccccc23)c2cc(-c3cc(Cl)ccc3F)nc3ccccc23)ncn1 [compound 037]
43 | > 6.30 | Fc1ccc(Cl)cc1-c1cc(-n2ccc3cnccc32)c2ccccc2n1 [compound 014]
44 | < 5.00 | Fc1ccc(Cl)cc1-c1cc(Nc2cnncc2Nc2cc(-c3cc(Cl)ccc3F)nc3ccccc23)c2ccccc2n1 [compound 087]
45 | > 6.30 | COc1ccc2c(Nc3cc(-c4cc(Cl)ccc4F)nc4ccccc34)ccnc2c1 [compound 075]
46 | < 5.00 | Nc1ccnc(Nc2cc(-c3cc(Cl)ccc3F)nc3ccccc23)c1 [compound 035]
47 | > 6.30 | CN(C)CC(=O)Nc1cnccc1Nc1cc(-c2cc(Cl)ccc2F)nc2ccccc12 [compound 054]
48 | < 5.00 | CCOc1cc(Nc2cc(-c3cc(Cl)ccc3F)nc3ccccc23)ccn1 [compound 101]
49 | 5.00 to 6.00 | Fc1ccc(Cl)c(-c2cc(Nc3ccncc3)c3ccccc3n2)c1 [compound 070]
50 | > 6.30 | CNC(=O)c1cnccc1Nc1cc(-c2cc(Cl)ccc2F)nc2ccccc12 [compound 119]
51 | > 6.30 | Fc1ccc(Cl)cc1-c1cc(Nc2ccnc3cccnc23)c2ccccc2n1 [compound 024]
52 | > 6.30 | CN1CCC(C(=O)Nc2cnccc2Nc2cc(-c3cc(Cl)ccc3F)nc3ccccc23)CC1 [compound 027]
53 | > 6.30 | Fc1ccc(Cl)cc1-c1cc(Nc2ncnc3ccccc23)c2ccccc2n1 [compound 068]
54 | 5.00 to 6.00 | CC(C)(C)OC(=O)NCC(=O)Nc1cc(Nc2cc(-c3cc(Cl)ccc3F)nc3ccccc23)ccn1 [compound 114]

Row | pIC50 | SMILES
55 | < 5.00 | Fc1ccc(Cl)cc1-c1cc(Nc2cc(N3CCOCC3)ncn2)c2ccccc2n1 [compound 106]
56 | 5.00 to 6.00 | CN1CCN(C(=O)c2cnccc2Nc2cc(-c3cc(Cl)ccc3F)nc3ccccc23)CC1 [compound 126]
57 | < 5.00 | Fc1ccc(Cl)cc1-c1cc(Nc2ccccn2)c2ccccc2n1 [compound 005]
58 | 5.00 to 6.00 | Fc1ccc(Cl)cc1-c1cc(Nc2ccnc(Cl)c2)c2ccccc2n1 [compound 021]
59 | < 5.00 | FC(F)(F)c1ccc(Cl)cc1-c1cc(Nc2ccncc2)c2ccccc2n1 [compound 058]
60 | > 6.30 | Fc1ccc(F)c(-c2cc(Nc3ccncc3)c3ccccc3n2)c1 [compound 043]
61 | > 6.30 | Fc1ccc(Cl)cc1-c1cc(Nc2ccnc3ccccc23)c2ccccc2n1 [compound 013]
62 | 5.00 to 6.00 | O=C(Nc1cnccc1Nc1cc(-c2cc(Cl)ccc2F)nc2ccccc12)C(F)(F)F [compound 033]
63 | < 5.00 | Fc1ccc(Cl)cc1-c1cc(Oc2cccnc2)c2ccccc2n1 [compound 063]
64 | 5.00 to 6.00 | O=C(O)c1cc(Nc2cc(-c3cc(Cl)ccc3F)nc3ccccc23)ccn1 [compound 124]
65 | < 5.00 | Clc1ccc(-c2cc(Nc3ccncc3)c3ccccc3n2)cc1Cl [compound 108]
66 | > 6.30 | CCC(=O)Nc1cc(Nc2cc(-c3cc(Cl)ccc3F)nc3ccccc23)ccn1 [compound 113]
67 | > 6.30 | COc1cnccc1Nc1cc(-c2cc(Cl)ccc2F)nc2ccccc12 [compound 090, [2-(5-Chloro-2-fluoro-phenyl)-quinolin-4-yl]-(3-methoxy-pyridin-4-yl)-amine]
68 | 5.00 to 6.00 | Nc1cnncc1Nc1cc(-c2cc(Cl)ccc2F)nc2ccccc12 [compound 092]
69 | < 5.00 | CN1CCC(c2nc3cnccc3n2-c2cc(-c3cc(Cl)ccc3F)nc3ccccc23)CC1 [compound 028]
70 | > 6.30 | Clc1cccc(-c2cc(Nc3ccncc3)c3ccccc3n2)c1 [compound 059]
71 | 6.00 to 6.30 | COc1ccc(-c2cc(Nc3ccncc3)c3ccccc3n2)cc1 [compound 042]
72 | < 5.00 | Oc1ccccc1-c1cc(Nc2ccncc2)c2ccccc2n1 [compound 099]
73 | 5.00 to 6.00 | CN(C)CCCNc1cc(Nc2cc(-c3cc(Cl)ccc3F)nc3ccccc23)cc(Cl)n1 [compound 102]
